From publication PMC6008491, “Discovery of a novel allosteric inhibitor scaffold for polyadenosine-diphosphate-ribose polymerase 14 (PARP14) macrodomain 2” (Bioorganic & Medicinal Chemistry, 2018)
Like-named read-outs stand apart in the source and are kept apart here.

Columns and labels:
[1] = biological target: T1, PARP14 MD2 (Homo sapiens, UniProt Q460N5); experiment: Biophysical KD determination (Bio-Layer Interferometry or Isothermal Titration Calorimetry); type: binding; design: PARP14 MD2 (second MD of PARP14)
T1 sequence (Q460N5 1003-1190 limits assumed): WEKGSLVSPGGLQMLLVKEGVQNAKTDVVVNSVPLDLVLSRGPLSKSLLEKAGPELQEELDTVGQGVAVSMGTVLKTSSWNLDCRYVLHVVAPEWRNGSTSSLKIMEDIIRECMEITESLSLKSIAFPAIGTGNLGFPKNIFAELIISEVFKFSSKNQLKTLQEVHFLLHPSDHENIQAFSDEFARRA
Excerpt: (§1) Compounds were profiled for binding activity with PARP14 MD2 through a competitive (AlphaScreen™) binding assay measuring the displacement of ADP-ribose peptide from PARP14 MD2.[11a]

[2] = biological target: T1, PARP14 MD2; experiment: AlphaScreen competitive binding assay, displacement of ADP-ribose peptide from PARP14 MD2; design: PARP14 MD2 (second MD of PARP14); conditions: AlphaScreen, PARP14 MD2, read-out: IC50
Excerpt: as §1

[3] = biological target: T1, PARP14 MD2; experiment: BioLayer Interferometry (BLI)

Structure (SMILES)	IC50 ([2]; Table 2)	also measured
CS(=O)(=O)Nc1cc(C#N)ccc1-c1cccc2c1[nH]c1ccccc12 [compound 56, N-(2-(9H-Carbazol-1-yl)-5-cyanophenyl)methanesulfonamide]		Kd ([1]; Table 1, BLI or ITC): 5.2 ± 1.7 µM
CC(=O)Nc1cccc(C)c1-c1cccc2c1[nH]c1ccccc12 [compound 57, N-(2-(9H-Carbazol-1-yl)-3-methylphenyl)acetamide]		IC50 ([2]; Table 1): 1.7 ± 0.1 µM; Kd ([1]; Table 1, BLI or ITC): 1.6 ± 0.7 µM
O=C(Cc1cccnc1)Nc1ccccc1-c1cccc2c1[nH]c1ccccc12 [compound 83, N-(2-(9H-Carbazol-1-yl)phenyl)-2-(pyridin-3-yl)acetamide]	1.1 µM	Kd ([1]; Table 2, BLI or ITC): 1.5 µM
Cc1ccc(CC(=O)Nc2ccccc2-c2cccc3c2[nH]c2ccccc23)cn1 [compound 84, N-(2-(9H-Carbazol-1-yl)phenyl)-2-(6-methylpyridin-3-yl)acetamide]	1 µM	Kd ([1]; Table 2, BLI or ITC): 2.7 µM
O=C(Cc1cnccn1)Nc1ccccc1-c1cccc2c1[nH]c1ccccc12 [compound 85, N-(2-(9H-Carbazol-1-yl)phenyl)-2-(pyrazin-2-yl)acetamide]	2.1 ± 0.1 µM	Kd ([1]; Table 2, BLI or ITC): 3.9 µM
O=C(Cc1ccc(=O)[nH]c1)Nc1ccccc1-c1cccc2c1[nH]c1ccccc12 [compound 88, N-(2-(9H-Carbazol-1-yl)phenyl)-2-(6-oxo-1,6-dihydropyridin-3-yl)acetamide]	6.6 ± 0.4 µM	
O=S(=O)(Cc1ccccc1F)Nc1ccccc1-c1cccc2c1[nH]c1ccccc12 [compound 89, N-(2-(9H-Carbazol-1-yl)phenyl)-1-(2-fluorophenyl)methanesulfonamide]	2.4 ± 0.1 µM	
O=C(Cc1ccccc1F)Nc1ccccc1-c1cccc2c1[nH]c1ccccc12 [compound 90, N-(2-(9H-Carbazol-1-yl)phenyl)-2-(2-fluorophenyl)acetamide]	2.8 ± 0.2 µM	
O=C(Cc1ccccc1Cl)Nc1ccccc1-c1cccc2c1[nH]c1ccccc12 [compound 91, N-(2-(9H-Carbazol-1-yl)phenyl)-2-(2-chlorophenyl)acetamide]	4.4 ± 0.3 µM	
Cc1ccc(CC(=O)Nc2ccccc2-c2cccc3c2[nH]c2ccccc23)cc1 [compound 92, N-(2-(9H-Carbazol-1-yl)phenyl)-2-(p-tolyl)acetamide]	8.7 ± 1.2 µM	
O=C(Cc1ccc(F)cc1)Nc1ccccc1-c1cccc2c1[nH]c1ccccc12 [compound 93, N-(2-(9H-Carbazol-1-yl)phenyl)-2-(4-fluorophenyl)acetamide]	> 50 µM	
COc1ccc(CC(=O)Nc2ccccc2-c2cccc3c2[nH]c2ccccc23)cc1 [compound 94, N-(2-(9H-Carbazol-1-yl)phenyl)-2-(4-methoxyphenyl)acetamide]	6.2 ± 0.6 µM	
N#Cc1ccc(CS(=O)(=O)Nc2ccccc2-c2cccc3c2[nH]c2ccccc23)cc1 [compound 95, N-(2-(9H-Carbazol-1-yl)phenyl)-1-(4-cyanophenyl)methanesulfonamide]	6.2 ± 0.6 µM	
O=C(Cc1ccc(Cl)cc1)Nc1ccccc1-c1cccc2c1[nH]c1ccccc12 [compound 96, N-(2-(9H-Carbazol-1-yl)phenyl)-2-(4-chlorophenyl)acetamide]	6.2 ± 0.6 µM	
O=S(=O)(Cc1ccc(C(F)(F)F)cc1)Nc1ccccc1-c1cccc2c1[nH]c1ccccc12 [compound 97, N-(2-(9H-Carbazol-1-yl)phenyl)-1-(4-(trifluoromethyl)phenyl)methanesulfonamide]	8.1 ± 0.7 µM	
COc1ccc(CC(=O)Nc2ccccc2-c2cccc3c2[nH]c2ccccc23)cc1OC [compound 98, N-(2-(9H-Carbazol-1-yl)phenyl)-2-(3,4-dimethoxyphenyl)acetamide]	4.3 ± 0.3 µM	
O=C(Cc1ccc2c(c1)OCO2)Nc1ccccc1-c1cccc2c1[nH]c1ccccc12 [compound 99, N-(2-(9H-Carbazol-1-yl)phenyl)-2-(benzo[d][1,3]dioxol-5-yl)acetamide]	6.9 ± 0.6 µM	
N#Cc1ccc(F)c(CS(=O)(=O)Nc2ccccc2-c2cccc3c2[nH]c2ccccc23)c1 [compound 100, N-(2-(9H-Carbazol-1-yl)phenyl)-1-(5-cyano-2-fluorophenyl)methanesulfonamide]	1.2 µM	Kd ([1]; Table 2, BLI or ITC): 1.3 µM
Cc1ccc(C)c(CC(=O)Nc2ccccc2-c2cccc3c2[nH]c2ccccc23)c1 [compound 101, N-(2-(9H-Carbazol-1-yl)phenyl)-2-(2,5-dimethylphenyl)acetamide]	44.6 ± 10.4 µM	
O=C(Cc1ccc(Cl)c(Cl)c1)Nc1ccccc1-c1cccc2c1[nH]c1ccccc12 [compound 102, N-(2-(9H-Carbazol-1-yl)phenyl)-2-(3,4-dichlorophenyl)acetamide]	6.3 ± 0.6 µM	
COc1cccc(CC(=O)Nc2ccccc2-c2cccc3c2[nH]c2ccccc23)c1 [compound 103, N-(2-(9H-Carbazol-1-yl)phenyl)-2-(3-methoxyphenyl)acetamide]	6.6 ± 0.5 µM	
O=C(Cc1cccc(F)c1)Nc1ccccc1-c1cccc2c1[nH]c1ccccc12 [compound 104, N-(2-(9H-Carbazol-1-yl)phenyl)-2-(3-fluorophenyl)acetamide]	4.2 ± 0.3 µM	
O=S(=O)(Cc1cccc(F)c1)Nc1ccccc1-c1cccc2c1[nH]c1ccccc12 [compound 105, N-(2-(9H-Carbazol-1-yl)phenyl)-1-(3-fluorophenyl)methanesulfonamide]	1.4 ± 0.1 µM	
O=C(Cc1cccc(C(F)(F)F)c1)Nc1ccccc1-c1cccc2c1[nH]c1ccccc12 [compound 106, N-(2-(9H-Carbazol-1-yl)phenyl)-2-(3-(trifluoromethyl)phenyl)acetamide]	7.1 ± 0.7 µM	
N#Cc1cccc(CC(=O)Nc2ccccc2-c2cccc3c2[nH]c2ccccc23)c1 [compound 107, N-(2-(9H-Carbazol-1-yl)phenyl)-2-(3-cyanophenyl)acetamide]	2.1 ± 0.1 µM	
N#Cc1cccc(CS(=O)(=O)Nc2ccccc2-c2cccc3c2[nH]c2ccccc23)c1 [compound 108, N-(2-(9H-Carbazol-1-yl)phenyl)-1-(3-cyanophenyl)methanesulfonamide]	0.66 ± 0.03 µM	Kd ([3]; read-out: KD (BLI)): 0.55 µM; Kd ([3]; read-out: calculated KD (BLI)): 0.55 µM; Kd ([1]; Table 2, BLI or ITC): 0.55 µM
